Assay: Sensory panel ranking of lingering aftertaste masking on a 0-5 scale (Example III)
Format: in vivo
Details: for Masking Effect: scale of 0-5, 0=no masking, 5=very strong masking; for Taste compared with the control: αG SWEET 0.14% solution, water used in control group, concentration series
Description: A solution of αG SWEET was prepared in water at a concentration of 0.14%. The Emblica officinalis fruit extract (prepared as above in Example I) containing the mucic acid 2-O-gallate (11.84%) and mucic acid lactone gallate (6.35%) mixture, individual fractions containing each of mucic acid 2-O-gallate, mucic acid lactone gallate, galloyl glucose (prepared in Example I) and mucic acid 3-O-gallate (Quality Phytochemicals, LLC, New Jersey, U.S.) were added to the αG SWEET solution, respectively, to achieve a series of concentrations ranging from about 50-80 ppm for the Emblica officinalis fruit extract; about 5-20 ppm for mucic acid 2-O-gallate; about 5-20 ppm for mucic acid 3-O-gallate; about 2-10 ppm for mucic acid lactone gallate; and about 10-20 ppm for galloyl glucose. Water was used in a control group. Samples were presented in a blind and pseudorandom order to a sensory panel. The lingering aftertaste-masking effect was evaluated by ranking the suppression of bitterness, metallic aftertaste and lingering sweetness on a scale of 0-5, where 0=no masking and 5=very strong masking.

[1] = 20 ppm in αG SWEET 0.14% solution

| Molecule | Masking Effect [1] | Taste compared with the control | Masking Effect (10 ppm in αG SWEET 0.14% solution) |
| --- | --- | --- | --- |
| O=C(OC(C(O)C(=O)O)C(O)C(O)C(=O)O)c1cc(O)c(O)c(O)c1 (centres unmarked) [Mucic Acid 3-O-Gallate, mucic acid 3-O-gallate] | 1 | tasted considerably less bitter and the lingering metallic off-note was reduced |  |
| O=C(OC(C(=O)O)C(O)C(O)C(O)C(=O)O)c1cc(O)c(O)c(O)c1 (centres unmarked) [Mucic acid 2-O-gallate, mucic acid 2-O-gallate] | 1 | tasted considerably less bitter and the lingering metallic off-note was reduced |  |
| O=C(OC(C(=O)O)C1OC(=O)C(O)C1O)c1cc(O)c(O)c(O)c1 (centres unmarked) [Mucic acid lactone gallate, mucic acid lactone gallate] |  | tasted considerably less bitter and the lingering metallic off-note was reduced | 2 |
| galloyl glucose [reference compound] | 0 | very low effect |  |

Source: patent US11191291B2, “Compositions for taste masking” (International Flavors & Fragrances Inc., priority 2016, dated 2021)
